# Laboratory results taken from patent US6770587B1, “Chain extended functionalized initiators and methods of preparing and using the same” (FMC Corporation, priority 2000, dated 2004).
# What was measured:
# [1] = Solubility of initiator in cyclohexane with isoprene added as chain extension agent; type: physicochemical; details: for solubility, Moles Active/Kg. / solubility, Moles Active/Liter: cyclohexane
# Procedure: For example, the solubility of 3-(1,1-dimethylethoxy)-1-propyllithium was investigated in cyclohexane at 0° C., with various amounts of isoprene added as a chain extension agent. The solubility data is collected in the table below:
# A similar impact on the solubility of 3-(hexamethyleneimino)-1-propyllithium in cyclohexane was obtained with the addition of limited amounts of isoprene.
# A one-liter three-necked Morton flask was equipped with a mechanical stirrer, Claisen adapter with an ice condenser and gas inlet, and a 250 milliliter pressure-equalizing dropping funnel. This apparatus was dried in an oven overnight at 125° C., assembled hot, and allowed to cool to room temperature in a stream of argon. Lithium metal dispersion was washed free of mineral oil with hexane (2×100 ml) and pentane (1×100 ml). The resultant lithium dispersion was dried in a stream of argon, weighed (13.90 grams, 2.00 moles, 2.80 equivalents), and transferred to the reaction flask with 400 ml of cyclohexane. The mechanical stirrer was set at an agitation rate of 500 RPMs, and the reaction mixture was heated to 80° C. with a heating mantle. The heat source was removed. The dropping funnel was charged with 107.82 grams (0.72 moles, 1.00 equivalent) of the precursor. The precursor was added dropwise, at an approximate rate of 0.71 ml/min. The reaction temperature was maintained at 70° C. with a dry ice/hexane bath. The total halide feed time was 162 minutes. The reaction mixture was allowed to stir for one hour post-feed, and maintained at a temperature of 70° C. with a heating mantle. Then isoprene, 98.20 grams ([…], […] of isoprene) was added at a feed rate of approximately 2.55 ml/min. The temperature was maintained at 62.5° C. during and after the feed. The reaction stirred for two hours before it was cooled to room temperature and filtered through a medium porosity pressure filter. The lithium muds were washed with cyclohexane (1×50 ml). The filtration took 15 minutes. This afforded a dark yellow solution, 647.08 grams, 850 ml. The sample was stored in 0° C. refrigerator. This solution was transferred to a dry, 1000 ml pear shaped flask. A majority of the solvent was removed on the rotary evaporator, at full vacuum, with a bath temperature of 30° C. This afforded a mobile, yellow oil, yield=307.92 g, 475 ml.
# [2] = non-chain extended initiator, cyclohexane (background statement); cited from earlier work
# [3] = Storage of initiator solutions, observation of precipitate or crystals; type: physicochemical
# Procedure: The sample bottle was placed in a refrigerator at −1° C. for twenty-four hours.
# (§1) The sample bottle was placed in a refrigerator at −1° C. for twenty-four hours. […] This solution was transferred to a dry, one-liter pear shaped flask. A majority of the solvent was removed on the rotary evaporator, at full vacuum, with a bath temperature of 40° C. This afforded a dark amber oil, yield=154.85 grams.
# as §1, with “one liter” for “one-liter”, “yield=230.07” for “yield=154.85”
# The sample bottle was placed in a refrigerator at −2° C. for forty-eight hours.
# This solution was transferred to a dry, 500 ml., pear shaped flask. A majority of the solvent was removed on the rotary evaporator, at full vacuum, with a bath temperature of 40° C. This afforded a dark amber oil, yield=104.90 grams. Heptane, 6.11 grams, was added as a freezing point depressant.
# A one-liter three-necked Morton flask was equipped with a mechanical stirrer, Claisen adapter with an ice condenser and gas inlet, and a 250 milliliter pressure-equalizing dropping funnel. This apparatus was dried in an oven overnight at 125° C., assembled hot, and allowed to cool to room temperature in a stream of argon. Lithium metal dispersion was washed free of mineral oil with hexane (2×100 ml), and pentane (1×100 ml). The resultant lithium dispersion was dried in a stream of argon, weighed (12.22 grams, 1.76 moles, 2.80 equivalents), and transferred to the reaction flask with 550 ml of cyclohexane. The mechanical stirrer was set at an agitation rate of 500 RPMs, and the reaction mixture was heated to 80° C. with a hearing mantle. The heat source was removed. The dropping funnel was charged with 94.90 grams (0.63 moles, 1.00 equivalent) of the precursor. The precursor was added dropwise, at an approximate rate of 1.59 ml/min. The reaction temperature was maintained at 70° C. with a dry ice/hexane bath. The total halide feed time was 66 minutes. The reaction mixture was allowed to stir for one hour post-feed and maintained at a temperature of 67.5° C. with a heating mantle. Then isoprene, 22.89 grams ([…], 0.50 equivalents of isoprene) was added at a feed rate of approximately 1.58 ml/min. The temperature was maintained at 62.5° C. during and after the feed. The reaction stirred for two hours before it was cooled to room temperature and filtered through a medium porosity pressure filter. The lithium muds were washed with cyclohexane (2×70 ml). The filtration took 15 minutes. This afforded a clear, light yellow solution, 513.07 g, 650 ml. The sample was stored in 0° C. refrigerator. This solution was transferred to a dry, 1000 ml pear-shaped flask. Some solvent was removed on the rotary evaporator, at full vacuum, with a bath temperature of 30° C. This afforded a light yellow solution, yield=386.01 g, 550 ml.
# A one-liter three-necked Morton flask was equipped with a mechanical stirrer, Claisen adapter with an ice condenser and gas inlet, and a 250 milliliter pressure-equalizing dropping funnel. This apparatus was dried in an oven overnight at 125° C., assembled hot, and allowed to cool to room temperature in a stream of argon. Lithium metal dispersion was washed free of mineral oil with hexane (2×100 ml) and pentane (1×100 ml). The resultant lithium dispersion was dried in a stream of argon, weighed (13.90 grams, 2.00 moles, 2.80 equivalents), and transferred to the reaction flask with 400 ml of cyclohexane. The mechanical stirrer was set at an agitation rate of 500 RPMs, and the reaction mixture was heated to 80° C. with a heating mantle. The heat source was removed. The dropping funnel was charged with 107.82 grams (0.72 moles, 1.00 equivalent) of the precursor. The precursor was added dropwise, at an approximate rate of 0.71 ml/min. […]
# [4] = 0° C., 0.00 isoprene equivalents
# [5] = 0° C., 0.50 isoprene equivalents
# [6] = 0° C., 0.75 isoprene equivalents
# [7] = 0° C., 1.00 isoprene equivalents
# [8] = 0° C., 2.00 isoprene equivalents
smiles,measurement,setting,value
"[Li][CH2]C(C)(C)CO[Si](C)(C)C [2,2-dimethyl-3-trimethylsilyloxy-1-propyllithium]",effect of chain extension on solubility,[1]; addition of less than one equivalent of the chain extension agent,increased the solubility
"[Li][CH2]CCOC(C)(C)C [3-(1,1-dimethylethoxy)-1-propyllithium]","solubility, Moles Active/Kg.",[1]; [4],0.36 Moles Active/Kg.
same,"solubility, Moles Active/Liter",[1]; [4],0.30 Moles Active/Liter
same,"solubility, Moles Active/Kg.",[1]; [5],1.35 Moles Active/Kg.
same,"solubility, Moles Active/Liter",[1]; [5],1.06 Moles Active/Liter
same,"solubility, Moles Active/Kg.",[1]; [6],1.72 Moles Active/Kg.
same,"solubility, Moles Active/Liter",[1]; [6],1.33 Moles Active/Liter
same,"solubility, Moles Active/Kg.",[1]; [7],1.84 Moles Active/Kg.
same,"solubility, Moles Active/Liter",[1]; [7],1.42 Moles Active/Liter
same,"solubility, Moles Active/Kg.",[1]; [8],1.90 Moles Active/Kg.
same,"solubility, Moles Active/Liter",[1]; [8],1.46 Moles Active/Liter
"[Li][CH2]CCOC(C)(C)CC [3-(1,1-dimethylpropyloxy)-1-propyllithium]",maximum solubility in cyclohexane,[2],0.30 Molar
[Li][CH2]CCN1CCCCCC1 [3-(hexamethyleneimino)-1-propyllithium],"solubility, Moles Active/Kg.",[1]; 0.00 isoprene equivalents,0.20 Moles Active/Kg.
same,"solubility, Moles Active/Liter",[1]; 0.00 isoprene equivalents,0.16 Moles Active/Liter
same,"solubility, Moles Active/Kg.",[1]; 0.13 isoprene equivalents,0.64 Moles Active/Kg.
same,"solubility, Moles Active/Liter",[1]; 0.13 isoprene equivalents,0.51 Moles Active/Liter
same,"solubility, Moles Active/Kg.",[1]; 0.51 isoprene equivalents,2.08 Moles Active/Kg.
same,"solubility, Moles Active/Liter",[1]; 0.51 isoprene equivalents,1.62 Moles Active/Liter
same,"solubility, Moles Active/Kg.",[1]; 0.90 isoprene equivalents,2.43 Moles Active/Kg.
same,"solubility, Moles Active/Liter",[1]; 0.90 isoprene equivalents,2.01 Moles Active/Liter
same,"solubility, Moles Active/Kg.",[1]; 2.00 isoprene equivalents,2.75 Moles Active/Kg.
same,"solubility, Moles Active/Liter",[1]; 2.00 isoprene equivalents,2.28 Moles Active/Liter
same,precipitation on storage,"[3]; cyclohexane solution, 6.707 wt. % (0.4556 moles/kg), overnight at −5° C.",heavy white precipitate
same,maximum solubility in cyclohexane,[2],0.30 Molar
[Li][CH2]CCN1CCCC1 [3-(pyrrolidino)-1-propyllithium],precipitation on storage,"[3]; cyclohexane solution before chain extension, 14.63 wt. % (1.228 moles/kg), overnight at 20° C.",heavy white precipitate had formed
"[Li][CH2]CCN1CCCCCC1 [Example 1, 3-(Hexamethyleneimino)-1-Propyllithium]",precipitation on storage,"[3]; cyclohexane solution as obtained, refrigerator at −1° C. for twenty-four hours",No solids had precipitated
same,precipitation on storage,"[3]; cyclohexane solution as obtained, storage overnight at 15° C.",no solids had precipitated
"[Li][CH2]CCN1CCCCCC1 [Example 2, 3-(Hexamethyleneimino)-1-Propyllithium]",precipitation on storage,"[3]; concentrated solution, 30.65 wt. % (2.083 moles/kg), −1° C. for one week",no precipitate was observed
"[Li][CH2]CCN1CCCCCC1 [Example 3, 3-(Hexamethyleneimino)-1-Propyllithium]",precipitation on storage,"[3]; concentrated solution, 35.74 wt. % (2.428 moles/kg), −1° C. for ten days",no precipitate was observed
"[Li][CH2]CCN1CCCC1 [Example 4, 3-(Pyrrolidino)-1-Propyllithium]",precipitation on storage,"[3]; cyclohexane solution diluted with heptane, 9.53 wt. %, −2° C. for forty-eight hours",No solids had precipitated
"[Li][CH2]CCN1CCCC1 [Example 5, 3-(Pyrrolidino)-1-Propyllithium]",precipitation on storage,"[3]; concentrated solution with heptane, 24.14 wt %, −2° C. for four days",no solids had precipitated
same,precipitation on storage,"[3]; cyclohexane solution, 14.02 wt. %, overnight at −2° C.",no solids had precipitated
"[Li][CH2]CCOC(C)(C)C [Example 7, 3-(1,1-Dimethylethoxy)-1-propyllithium]",crystals on storage,"[3]; cyclohexane solution, 0° C. refrigerator, after one day",Crystals were present
"[Li][CH2]CCOC(C)(C)C [Example 10, 3-(1,1-Dimethylethoxy)-1-propyllithium]",crystals on storage,"[3]; concentrated cyclohexane solution, 49.4 wt. % (1.91 mole/kg), storage in 0° C. refrigerator, maximum solubility",crystals were present
